Key:
Assay in all cases: Enzyme Assay
PIK3CB (Human) = PIK3CB (Human) (UniProt P42338)
PIK3CG (human) = PIK3CG (human) (UniProt P48736)
PIK3CA (human) = PIK3CA (human) (UniProt P42336)
PIK3CD (Human) = PIK3CD (Human) (UniProt O00329)
PIK3CD (Human), sequence (O00329 whole entry, looked up): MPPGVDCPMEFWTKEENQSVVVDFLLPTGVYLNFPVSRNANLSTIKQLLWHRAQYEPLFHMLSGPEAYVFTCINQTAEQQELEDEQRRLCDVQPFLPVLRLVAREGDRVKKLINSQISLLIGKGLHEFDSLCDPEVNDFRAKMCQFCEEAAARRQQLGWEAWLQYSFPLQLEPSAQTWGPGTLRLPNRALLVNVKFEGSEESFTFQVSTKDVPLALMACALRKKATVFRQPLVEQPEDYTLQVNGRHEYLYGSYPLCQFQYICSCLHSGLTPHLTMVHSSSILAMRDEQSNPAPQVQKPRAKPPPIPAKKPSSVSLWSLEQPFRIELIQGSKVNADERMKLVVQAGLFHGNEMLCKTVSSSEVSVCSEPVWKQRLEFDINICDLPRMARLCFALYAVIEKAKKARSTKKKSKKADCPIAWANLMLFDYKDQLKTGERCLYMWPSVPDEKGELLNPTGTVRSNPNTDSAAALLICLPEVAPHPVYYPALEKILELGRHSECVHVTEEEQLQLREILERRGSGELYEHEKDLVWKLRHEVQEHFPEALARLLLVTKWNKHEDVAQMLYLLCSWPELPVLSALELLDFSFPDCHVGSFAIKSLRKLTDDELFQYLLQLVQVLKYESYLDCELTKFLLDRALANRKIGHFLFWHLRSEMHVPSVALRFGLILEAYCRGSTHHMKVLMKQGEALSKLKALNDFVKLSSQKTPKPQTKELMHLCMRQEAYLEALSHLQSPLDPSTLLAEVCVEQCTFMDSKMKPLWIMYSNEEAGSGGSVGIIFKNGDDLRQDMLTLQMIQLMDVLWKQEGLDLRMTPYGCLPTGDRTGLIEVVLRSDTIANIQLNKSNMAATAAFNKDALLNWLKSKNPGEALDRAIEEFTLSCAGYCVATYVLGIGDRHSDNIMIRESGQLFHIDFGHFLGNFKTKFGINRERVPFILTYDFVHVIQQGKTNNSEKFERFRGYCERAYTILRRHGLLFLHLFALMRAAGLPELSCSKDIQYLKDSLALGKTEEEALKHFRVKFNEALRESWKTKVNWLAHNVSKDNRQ

PIK3CA (human), sequence (P42336 whole entry, looked up): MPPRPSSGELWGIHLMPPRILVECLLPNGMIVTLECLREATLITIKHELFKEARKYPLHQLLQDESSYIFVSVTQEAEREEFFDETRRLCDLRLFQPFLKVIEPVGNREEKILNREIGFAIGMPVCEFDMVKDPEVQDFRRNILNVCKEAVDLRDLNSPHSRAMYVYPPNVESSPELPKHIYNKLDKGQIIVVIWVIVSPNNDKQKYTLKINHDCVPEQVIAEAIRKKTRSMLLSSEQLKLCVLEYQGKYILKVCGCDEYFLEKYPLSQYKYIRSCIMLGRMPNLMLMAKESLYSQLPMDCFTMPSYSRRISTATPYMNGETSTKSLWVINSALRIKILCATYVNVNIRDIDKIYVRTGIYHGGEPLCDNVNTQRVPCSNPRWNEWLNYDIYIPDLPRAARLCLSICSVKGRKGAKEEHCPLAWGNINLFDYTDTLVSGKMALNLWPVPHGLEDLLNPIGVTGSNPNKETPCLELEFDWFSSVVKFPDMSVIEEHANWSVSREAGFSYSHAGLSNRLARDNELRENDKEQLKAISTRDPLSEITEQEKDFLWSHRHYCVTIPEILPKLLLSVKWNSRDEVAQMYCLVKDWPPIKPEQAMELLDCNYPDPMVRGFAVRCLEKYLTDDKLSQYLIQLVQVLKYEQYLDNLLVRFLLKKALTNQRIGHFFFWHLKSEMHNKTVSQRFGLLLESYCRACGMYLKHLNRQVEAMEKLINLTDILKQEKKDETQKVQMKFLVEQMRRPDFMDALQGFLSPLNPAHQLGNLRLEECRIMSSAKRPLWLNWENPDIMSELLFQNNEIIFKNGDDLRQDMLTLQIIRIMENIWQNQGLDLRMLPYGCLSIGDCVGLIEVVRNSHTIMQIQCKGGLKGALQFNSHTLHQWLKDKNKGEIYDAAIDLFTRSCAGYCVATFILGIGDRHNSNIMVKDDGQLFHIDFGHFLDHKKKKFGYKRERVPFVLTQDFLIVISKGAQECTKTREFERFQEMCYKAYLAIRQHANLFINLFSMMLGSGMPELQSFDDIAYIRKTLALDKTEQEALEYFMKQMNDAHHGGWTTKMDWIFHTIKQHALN
PIK3CG (human), sequence (P48736 whole entry, looked up): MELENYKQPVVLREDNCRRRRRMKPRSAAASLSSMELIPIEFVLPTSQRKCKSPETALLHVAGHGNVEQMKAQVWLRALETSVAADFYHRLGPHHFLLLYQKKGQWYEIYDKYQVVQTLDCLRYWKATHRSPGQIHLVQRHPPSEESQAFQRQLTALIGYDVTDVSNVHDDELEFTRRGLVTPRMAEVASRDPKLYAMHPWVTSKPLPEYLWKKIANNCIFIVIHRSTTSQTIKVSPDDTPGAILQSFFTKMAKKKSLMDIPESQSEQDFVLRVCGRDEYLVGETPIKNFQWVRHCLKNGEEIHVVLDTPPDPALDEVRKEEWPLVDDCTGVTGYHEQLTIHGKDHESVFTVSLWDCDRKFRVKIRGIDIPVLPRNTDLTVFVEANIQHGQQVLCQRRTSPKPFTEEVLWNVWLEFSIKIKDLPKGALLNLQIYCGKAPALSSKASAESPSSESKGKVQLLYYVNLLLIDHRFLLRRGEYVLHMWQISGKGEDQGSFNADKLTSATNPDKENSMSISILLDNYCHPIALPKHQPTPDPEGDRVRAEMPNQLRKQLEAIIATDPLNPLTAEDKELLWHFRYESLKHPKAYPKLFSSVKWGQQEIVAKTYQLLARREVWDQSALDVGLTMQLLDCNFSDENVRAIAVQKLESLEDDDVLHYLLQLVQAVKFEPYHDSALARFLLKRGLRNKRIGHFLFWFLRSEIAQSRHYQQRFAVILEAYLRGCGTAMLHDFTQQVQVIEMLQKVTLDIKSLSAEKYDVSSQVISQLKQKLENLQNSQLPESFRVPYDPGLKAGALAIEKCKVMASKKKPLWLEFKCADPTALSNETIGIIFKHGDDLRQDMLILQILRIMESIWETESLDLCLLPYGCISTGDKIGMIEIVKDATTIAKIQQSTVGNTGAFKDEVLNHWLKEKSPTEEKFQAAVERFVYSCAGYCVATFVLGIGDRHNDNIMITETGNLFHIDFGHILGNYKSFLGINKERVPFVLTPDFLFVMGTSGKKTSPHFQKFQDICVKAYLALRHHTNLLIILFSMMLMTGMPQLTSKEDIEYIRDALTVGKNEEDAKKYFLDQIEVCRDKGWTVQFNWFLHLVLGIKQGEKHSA
PIK3CB (Human), sequence (P42338 whole entry, looked up): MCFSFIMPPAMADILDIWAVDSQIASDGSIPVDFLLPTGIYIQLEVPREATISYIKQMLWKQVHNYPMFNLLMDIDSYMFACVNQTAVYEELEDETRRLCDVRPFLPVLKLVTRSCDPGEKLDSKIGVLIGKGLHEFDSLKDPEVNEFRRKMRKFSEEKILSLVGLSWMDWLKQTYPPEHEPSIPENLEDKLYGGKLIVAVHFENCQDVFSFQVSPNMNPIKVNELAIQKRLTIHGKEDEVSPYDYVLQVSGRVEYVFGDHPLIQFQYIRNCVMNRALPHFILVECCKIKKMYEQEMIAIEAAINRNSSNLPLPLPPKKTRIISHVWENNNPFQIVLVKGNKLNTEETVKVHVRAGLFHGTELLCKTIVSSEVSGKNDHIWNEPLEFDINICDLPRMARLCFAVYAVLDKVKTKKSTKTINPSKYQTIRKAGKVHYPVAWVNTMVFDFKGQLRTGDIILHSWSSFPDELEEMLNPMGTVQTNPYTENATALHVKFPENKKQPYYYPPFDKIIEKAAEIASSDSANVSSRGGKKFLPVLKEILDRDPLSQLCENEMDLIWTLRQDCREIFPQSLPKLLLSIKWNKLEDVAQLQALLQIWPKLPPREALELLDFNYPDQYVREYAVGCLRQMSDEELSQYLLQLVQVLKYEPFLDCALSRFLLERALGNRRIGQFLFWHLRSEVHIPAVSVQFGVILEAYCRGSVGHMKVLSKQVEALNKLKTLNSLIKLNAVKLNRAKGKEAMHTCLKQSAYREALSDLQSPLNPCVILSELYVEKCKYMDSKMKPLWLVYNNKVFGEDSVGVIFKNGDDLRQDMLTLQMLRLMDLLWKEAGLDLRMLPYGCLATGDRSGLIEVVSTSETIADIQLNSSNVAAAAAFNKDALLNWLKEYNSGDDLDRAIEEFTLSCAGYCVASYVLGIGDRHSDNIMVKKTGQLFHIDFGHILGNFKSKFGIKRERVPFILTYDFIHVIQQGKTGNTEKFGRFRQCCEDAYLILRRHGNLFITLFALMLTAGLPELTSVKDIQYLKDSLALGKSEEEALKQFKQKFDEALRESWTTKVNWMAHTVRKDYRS

Row | IC50 (PIK3CB (Human)) | IC50 (PIK3CG (human)) | IC50 (PIK3CA (human)) | IC50 (PIK3CD (Human)) | Ki (PIK3CD (Human)) | SMILES
1 | 12.6 µM | 10 µM | > 25.1 µM | 0.1 µM | – | Cn1ccc(C(=O)Nc2cc(-c3cccc4[nH]ccc34)cc3[nH]ncc23)n1
2 | 3.16 µM | 3.16 µM | 7.94 µM | 0.02 µM | – | Cc1cc2c(-c3cc(NC(=O)c4csc(C)n4)c4cn[nH]c4c3)cccc2[nH]1
3 | 10 µM | 3.98 µM | > 25.1 µM | 0.0501 µM | – | Cc1nc(C(=O)Nc2cc(-c3cccc4[nH]ccc34)cc3[nH]ncc23)cs1
4 | 1.58 µM | 3.98 µM | 1.26 µM | 0.00316 µM | – | CC(C)N1CCN(Cc2nc(C(=O)Nc3cc(-c4cccc5[nH]ccc45)cc4[nH]ncc34)cs2)CC1
5 | 7.94 µM | 3.16 µM | 10 µM | 0.00631 µM | – | O=C(Nc1cc(-c2cccc3[nH]ccc23)cc2[nH]ncc12)c1csc(CN2CCOCC2)n1
6 | 5.01 µM | 0.251 µM | 7.94 µM | 0.00794 µM | – | Cc1nc(C(=O)Nc2cc(-c3ccnc4[nH]ccc34)cc3[nH]ncc23)cs1
7 | 15.8 µM | 3.98 µM | 15.8 µM | 0.631 µM | – | Cc1nc(C(=O)Nc2cc(-c3ccc(Cl)c(NS(C)(=O)=O)c3)cc3[nH]ncc23)cs1
8 | > 25.1 µM | > 25.1 µM | > 25.1 µM | 15.8 µM | – | CN(C(=O)c1ccccn1)c1cc(-c2cccc3[nH]ccc23)cc2[nH]ncc12
9 | 1.26 µM | 1.26 µM | 10 µM | 0.0794 µM | – | c1cc(-c2cc(-c3ncco3)c3cn[nH]c3c2)c2cc[nH]c2c1
10 | 15.8 µM | 1.26 µM | > 25.1 µM | 0.126 µM | – | Cc1ccc(C(=O)Nc2cc(-c3cccc4[nH]ccc34)cc3[nH]ncc23)nc1
11 | 6.31 µM | 6.31 µM | 10 µM | 0.1 µM | 0.0501 µM | O=C(Nc1cc(-c2cccc3[nH]ccc23)cc2[nH]ncc12)c1ccccn1
12 | 2.51 µM | 2 µM | 5.01 µM | 0.126 µM | – | Cc1ccc(-c2cc(-c3cccc4[nH]ccc34)cc3[nH]ncc23)o1
13 | 3.16 µM | 10 µM | 12.6 µM | 0.00126 µM | – | CC(C)N1CCN(Cc2nnc(-c3cc(-c4cccc5[nH]ccc45)cc4[nH]ncc34)o2)CC1
14 | 20 µM | 20 µM | > 25.1 µM | 0.794 µM | – | Cn1nccc1C(=O)Nc1cc(-c2cccc3[nH]ccc23)cc2[nH]ncc12
15 | > 25.1 µM | 6.31 µM | > 25.1 µM | 0.316 µM | – | Cc1nc(C(=O)Nc2cc(-c3cccc4[nH]ncc34)cc3[nH]ncc23)cs1
16 | 3.16 µM | 3.16 µM | 12.6 µM | 0.0158 µM | – | Cc1nc(C(=O)Nc2cc(-c3cc(F)cc4[nH]ccc34)cc3[nH]ncc23)cs1
17 | 2.51 µM | 0.316 µM | 0.398 µM | > 25.1 µM | 0.0001 µM | COc1ncc(-c2cc(NC(=O)c3csc(CN4C[C@@H](C)O[C@@H](C)C4)n3)c3cn[nH]c3c2)cc1NS(C)(=O)=O
18 | 2.51 µM | 7.94 µM | 6.31 µM | 0.0126 µM | – | COc1cc(-c2cc(NC(=O)c3csc(C)n3)c3cn[nH]c3c2)c2cc[nH]c2c1
19 | > 25.1 µM | > 25.1 µM | > 25.1 µM | 0.316 µM | – | Cc1nc(C(=O)Nc2cc(-c3cccc4[nH]cnc34)cc3[nH]ncc23)cs1
20 | 3.16 µM | 0.794 µM | 20 µM | 0.0158 µM | – | Cc1cccc(C(=O)Nc2cc(-c3cccc4[nH]ccc34)cc3[nH]ncc23)n1
21 | 3.98 µM | 0.631 µM | 3.16 µM | 0.0316 µM | – | Cc1nc(C(=O)Nc2cc(-c3cnc(C)c(NS(C)(=O)=O)c3)cc3[nH]ncc23)cs1

Row | IC50 (PIK3CB (Human)) | IC50 (PIK3CG (human)) | IC50 (PIK3CA (human)) | IC50 (PIK3CD (Human)) | Ki (PIK3CD (Human)) | SMILES
22 | 6.31 µM | 3.98 µM | 7.94 µM | 0.794 µM | – | Cc1ccc(-c2cc(-c3cccc4[nH]ccc34)cc3[nH]ncc23)s1
23 | 1 µM | 2 µM | > 25.1 µM | 0.00316 µM | – | C[C@@H]1CN(Cc2nnc(-c3cc(-c4cccc5[nH]ccc45)cc4[nH]ncc34)o2)C[C@H](C)O1
24 | 20 µM | > 25.1 µM | 25.1 µM | 1 µM | – | Cc1nc(C(=O)Nc2cc(-c3cnc(Cl)c(CS(=O)(=O)c4ccccc4)c3)cc3[nH]ncc23)cs1
25 | 0.501 µM | 0.0251 µM | 0.2 µM | 0.00126 µM | – | Cc1nc(C(=O)Nc2cc(-c3cnc(Cl)c(NS(=O)(=O)c4ccccc4)c3)cc3[nH]ncc23)cs1
26 | > 25.1 µM | 0.316 µM | 7.94 µM | 0.0794 µM | – | Cc1nc(C(=O)Nc2cc(-c3cncc(NS(C)(=O)=O)c3)cc3[nH]ncc23)cs1
27 | 15.8 µM | 15.8 µM | 20 µM | 0.01 µM | – | O=C(Nc1cc(-c2cccc3[nH]ccc23)cc2[nH]ncc12)c1csc(CN2CCCCC2)n1
28 | 1.58 µM | 6.31 µM | 5.01 µM | > 25.1 µM | 0.000126 µM | CC(C)N1CCN(Cc2cnc(-c3cc(-c4cccc5[nH]ccc45)cc4[nH]ncc34)o2)CC1
29 | 20 µM | 12.6 µM | > 25.1 µM | 1.26 µM | – | O=C(Nc1cc(-c2cccc3[nH]ccc23)cc2[nH]ncc12)c1ccccc1
30 | 0.794 µM | 0.2 µM | 0.794 µM | 0.0126 µM | – | COc1ncc(-c2cc(NC(=O)c3csc(C)n3)c3cn[nH]c3c2)cc1NS(C)(=O)=O
31 | 12.6 µM | 10 µM | > 25.1 µM | 0.158 µM | – | O=C(Nc1cc(-c2cccc3[nH]ccc23)cc2[nH]ncc12)c1cscn1
32 | 7.94 µM | 10 µM | 7.94 µM | 0.00398 µM | – | O=C(Nc1cc(-c2cccc3[nH]ccc23)cc2[nH]ncc12)c1csc(CN2CCN3CCC[C@H]3C2)n1
33 | 6.31 µM | 2.51 µM | > 25.1 µM | 0.398 µM | – | Cc1csc(-c2cc(-c3cccc4[nH]ccc34)cc3[nH]ncc23)n1
34 | 1 µM | 2 µM | 15.8 µM | 0.00251 µM | – | C[C@@H]1CN(Cc2cnc(-c3cc(-c4cccc5[nH]ccc45)cc4[nH]ncc34)o2)C[C@H](C)O1
35 | 3.16 µM | 1.26 µM | > 25.1 µM | 0.1 µM | – | Cc1nnc(-c2cc(-c3cccc4[nH]ccc34)cc3[nH]ncc23)o1
36 | 6.31 µM | 3.98 µM | 10 µM | 0.251 µM | – | Cc1cnc(-c2cc(-c3cccc4[nH]ccc34)cc3[nH]ncc23)s1
37 | > 25.1 µM | > 25.1 µM | > 25.1 µM | 0.501 µM | – | Cc1nc(C(=O)Nc2cc(-c3cnc(Cl)c(N(C)S(=O)(=O)c4ccccc4)c3)cc3[nH]ncc23)cs1
38 | > 25.1 µM | 20 µM | > 25.1 µM | 1 µM | – | CC(C)n1nccc1C(=O)Nc1cc(-c2cccc3[nH]ccc23)cc2[nH]ncc12
39 | 0.794 µM | 0.631 µM | 12.6 µM | 0.126 µM | – | Cc1coc(-c2cc(-c3cccc4[nH]ccc34)cc3[nH]ncc23)n1
40 | 12.6 µM | 7.94 µM | > 25.1 µM | 0.501 µM | – | O=C(Nc1cc(-c2cccc3[nH]ccc23)cc2[nH]ncc12)c1csc(-c2ccccc2)n1
41 | 5.01 µM | 2.51 µM | 12.6 µM | 0.002 µM | – | C[C@@H]1CN(Cc2nc(C(=O)Nc3cc(-c4cccc5[nH]ccc45)cc4[nH]ncc34)cs2)C[C@H](C)O1
42 | 0.631 µM | 0.501 µM | 0.501 µM | – | – | COc1ncc(-c2cc(-c3ncc(CN4C[C@@H](C)O[C@@H](C)C4)o3)c3cn[nH]c3c2)cc1NS(C)(=O)=O

Reference: the Kinase Knowledgebase extract (Sharma et al. 2016)
